The source of these data is PubChem BioAssay AID1963866 (Molecular Pharmacology Branch, DTP, NCI, 2024).

This experiment has as its system PDC KRAS tumor spheroids with HUVEC/MSC, viability. The experiment is described as follows: Anticancer human tumor 349418-098-R-PDC patient-derived lung adenocarcinoma cell line growth inhibition [KRAS2]. Conditions: for viability, T/C: stronger effect = lower value. The procedure, abridged:
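Combination screen of spheroid viability in tumor-cell co-cultures with endothelial (HUVEC) and mesenchymal stem cell stroma. Each agent was tested in half-log dilutions, topping at clinical Cmax or at 10 microM without a known Cmax.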

Setting [1] is: curve of first compound, second compound 0.1 µM.
Where [2] appears, read: curve of first compound, second compound 0.316 µM.
Setting [3] is: curve of first compound, second compound 1 µM.
Setting [4] is: curve of first compound, second compound 3.16 µM.
Where [5] appears, read: curve of first compound, second compound 10 µM.
[6] abbreviates: second compound 0.1 µM, first compound 0.0316 µM.
Where [7] appears, read: second compound 0.1 µM, first compound 0.1 µM.
The mark [8] stands for this setting: second compound 0.316 µM, first compound 0.0316 µM.
[9] abbreviates: second compound 0.316 µM, first compound 0.1 µM.
Setting [10] is: second compound 1 µM, first compound 0.0316 µM.
Setting [11] is: second compound 1 µM, first compound 0.1 µM.
The mark [12] stands for this setting: second compound 3.16 µM, first compound 0.0316 µM.
Setting [13] is: second compound 3.16 µM, first compound 0.1 µM.
Where [14] appears, read: second compound 10 µM, first compound 0.0316 µM.
Where [15] appears, read: second compound 10 µM, first compound 0.1 µM.
The mark [16] stands for this setting: second compound 0.1 µM, first compound 0.316 µM.
Where [17] appears, read: second compound 0.1 µM, first compound 1 µM.
The mark [18] stands for this setting: second compound 0.1 µM, first compound 3.16 µM.
The mark [19] stands for this setting: second compound 0.1 µM, first compound 10 µM.
Setting [20] is: second compound 0.316 µM, first compound 0.316 µM.
Where [21] appears, read: second compound 0.316 µM, first compound 1 µM.
The mark [22] stands for this setting: second compound 0.316 µM, first compound 3.16 µM.
The mark [23] stands for this setting: second compound 0.316 µM, first compound 10 µM.
Where [24] appears, read: second compound 1 µM, first compound 0.316 µM.
Where [25] appears, read: second compound 1 µM, first compound 1 µM.
Where [26] appears, read: second compound 1 µM, first compound 3.16 µM.
Setting [27] is: second compound 1 µM, first compound 10 µM.
Where [28] appears, read: second compound 3.16 µM, first compound 0.316 µM.
[29] abbreviates: second compound 3.16 µM, first compound 1 µM.
[30] abbreviates: second compound 3.16 µM, first compound 3.16 µM.
Where [31] appears, read: second compound 3.16 µM, first compound 10 µM.

Where “and” joins values, the source holds several entries; their conditions need not be identical. Equal values may be shown once. Where only a bound is given, the exact number is not on record here.
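Also: spheroids exposed to compounds for seven days before readout.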

As for `Cn1ncnc1[C@H]1c2n[nH]c(=O)c3cc(F)cc(c23)N[C@@H]1c1ccc(F)cc1` + CC1OCC2(CCN(c3cnc(Sc4ccnc(N)c4Cl)c(N)n3)CC2)C1N, the IC50 by setting is: under setting [1], greater than 100 nM; under setting [2], greater than 100 nM; under setting [3], greater than 100 nM; under setting [4], greater than 100 nM; under setting [5], greater than 100 nM. Further, the viability, T/C reads like this: (second compound 0.1 µM, first compound 0.000316 µM) 105%; (second compound 0.1 µM, first compound 0.001 µM) 102%; (second compound 0.1 µM, first compound 0.00316 µM) 95.9%; (second compound 0.1 µM, first compound 0.01 µM) 95.7%; under setting [6], 88.6%; under setting [7], 85.8%. Further, the viability, T/C by setting is: (second compound 0.316 µM, first compound 0.000316 µM) 93.5%; (second compound 0.316 µM, first compound 0.001 µM) 97.2%; (second compound 0.316 µM, first compound 0.00316 µM) 95.6%; (second compound 0.316 µM, first compound 0.01 µM) 87.5%; under setting [8], 83.3%; under setting [9], 73.9%. Moreover, the viability, T/C was 95.8% (second compound 1 µM, first compound 0.000316 µM); 93% (second compound 1 µM, first compound 0.001 µM); 92.2% (second compound 1 µM, first compound 0.00316 µM); 83.8% (second compound 1 µM, first compound 0.01 µM); 82.6% under setting [10]; 76% under setting [11]. Further, the viability, T/C is 90.3% (second compound 3.16 µM, first compound 0.000316 µM); 83.1% (second compound 3.16 µM, first compound 0.001 µM); 83.3% (second compound 3.16 µM, first compound 0.00316 µM); 79.8% (second compound 3.16 µM, first compound 0.01 µM); 73.7% under setting [12]; 74.2% under setting [13]. Moreover, the viability, T/C is 78.9% (second compound 10 µM, first compound 0.000316 µM); 74.4% (second compound 10 µM, first compound 0.001 µM); 76.7% (second compound 10 µM, first compound 0.00316 µM); 66.7% (second compound 10 µM, first compound 0.01 µM); 62.8% under setting [14]; 61.9% under setting [15].

For `COC(=O)c1ccc2c(C(=Nc3ccc(N(C)C(=O)CN4CCN(C)CC4)cc3)c3ccccc3)c(O)[nH]c2c1`, the viability, T/C is, setting by setting: (compound 3.16 µM) 24.1% [middle of 5 runs]; (compound 10 µM) 16.1% [middle of 5 runs].

Take `O=C(c1cc(Cc2n[nH]c(=O)c3ccccc23)ccc1F)N1CCN(C(=O)C2CC2)CC1`: the viability, T/C reads like this: (compound 0.0316 µM) 91.8% [middle of 5 runs]; (compound 0.1 µM) 94.4% [middle of 5 runs].

For `COc1cc(Nc2ncc3c(n2)-c2ccc(Cl)cc2C(c2c(F)cccc2OC)=NC3)ccc1C(=O)O` + C=CC(=O)N1CCN(c2nc(OCC3CCCN3C)nc3c2CCN(c2cccc4cccc(C)c24)C3)CC1CC#N, the half-inhibitory concentration (IC50) is, setting by setting: (curve of first compound, second compound 0.0316 µM) 41 nM; under setting [1], 55.2 nM; under setting [2], less than 31.6 nM; under setting [3], less than 31.6 nM; under setting [4], less than 31.6 nM. In addition, the viability, T/C runs as follows: (second compound 0.0316 µM, first compound 0.0316 µM) 55.8%; (second compound 0.0316 µM, first compound 0.1 µM) 29.1%; (second compound 0.0316 µM, first compound 0.316 µM) 33.7%; (second compound 0.0316 µM, first compound 1 µM) 28.3%; (second compound 0.0316 µM, first compound 3.16 µM) 28.1%; (second compound 0.0316 µM, first compound 10 µM) 21.2%. The viability, T/C is, setting by setting: under setting [6], 60.8%; under setting [7], 36.3%; under setting [16], 36.3%; under setting [17], 26.1%; under setting [18], 28.2%; under setting [19], 25.4%. For the same compound, the viability, T/C under setting [8] was 49.7%; the viability, T/C under setting [9] is 20.5%; the viability, T/C under setting [20] was 27.8%; the viability, T/C under setting [21] was 31.9%; the viability, T/C under setting [22] is 20.2%; the viability, T/C under setting [23] is 19.4%. The viability, T/C runs as follows: under setting [10], 24%; under setting [11], 24%; under setting [24], 21.8%; under setting [25], 19.7%; under setting [26], 16.2%; under setting [27], 17%. Also, the viability, T/C is 0.09% under setting [12]; 0.09% under setting [13]; 0.11% under setting [28]; 0.08% under setting [29]; 0.49% under setting [30]; 0.12% under setting [31].

As to `COc1cc(Nc2ncc3c(n2)-c2ccc(Cl)cc2C(c2c(F)cccc2OC)=NC3)ccc1C(=O)O`, the viability, T/C is 27.8% [middle of 5 runs] (compound 0.1 µM); 33.1% [middle of 5 runs] (compound 0.316 µM); 35.6% [middle of 5 runs] (compound 1 µM); 33.9% [middle of 5 runs] (compound 3.16 µM); 24.8% [middle of 5 runs] (compound 10 µM). In addition, the IC50 (curve of compound) was < 31.6 nM and 43.2 nM.

As to `COc1cc2nccc(Oc3ccc(NC(=O)C4(C(=O)Nc5ccc(F)cc5)CC4)cc3)c2cc1OC` + CNCc1ccccc1-c1csc(C(C)Nc2nc(C)nc3cc(OC)c(OC)cc23)c1, the IC50 by setting is: under setting [1], 1570 nM; under setting [2], 1640 nM; under setting [3], 596 nM; under setting [4], less than 31.6 nM; under setting [5], less than 31.6 nM. Besides, the viability, T/C is, setting by setting: under setting [6], 101%; under setting [7], 99.5%; under setting [16], 95.4%; under setting [17], 73.3%; under setting [18], 9.71%; under setting [19], 18.6%. Further, the viability, T/C runs as follows: under setting [8], 97.4%; under setting [9], 95%; under setting [20], 85.5%; under setting [21], 79.6%; under setting [22], 7.07%; under setting [23], 14.3%. Besides, the viability, T/C reads like this: under setting [10], 95.4%; under setting [11], 93.9%; under setting [24], 78.4%; under setting [25], 26.9%; under setting [26], 0.88%; under setting [27], 1.04%. Besides, the viability, T/C reads like this: under setting [12], 0.14%; under setting [13], 0.09%; under setting [28], 0.12%; under setting [29], 0.04%; under setting [30], 0.12%; under setting [31], 0.08%. In addition, the viability, T/C under setting [14] is 0.08%; the viability, T/C under setting [15] was 0.07%; the viability, T/C (second compound 10 µM, first compound 0.316 µM) is 0.08%; the viability, T/C (second compound 10 µM, first compound 1 µM) is 0.24%; the viability, T/C (second compound 10 µM, first compound 3.16 µM) was 0.07%; the viability, T/C (second compound 10 µM, first compound 10 µM) is 0.13%.
